The record followed here is patent publication US5834499A, “5-HT3 receptor agonist, novel thiazole derivative and intermediate thereof” (Yamanouchi Pharmaceutical Co., Ltd., priority 1994, dated 1998).

Test [1] concerns the target T1, 5-HT3 receptor (Cavia porcellus, UniProt O70212).
T1 construct: Distal colons were excised from male Hartley guinea pigs; from tissue; host or cells: distal colon strips of male Hartley guinea pigs
T1 sequence (O70212 24-490 limits assumed): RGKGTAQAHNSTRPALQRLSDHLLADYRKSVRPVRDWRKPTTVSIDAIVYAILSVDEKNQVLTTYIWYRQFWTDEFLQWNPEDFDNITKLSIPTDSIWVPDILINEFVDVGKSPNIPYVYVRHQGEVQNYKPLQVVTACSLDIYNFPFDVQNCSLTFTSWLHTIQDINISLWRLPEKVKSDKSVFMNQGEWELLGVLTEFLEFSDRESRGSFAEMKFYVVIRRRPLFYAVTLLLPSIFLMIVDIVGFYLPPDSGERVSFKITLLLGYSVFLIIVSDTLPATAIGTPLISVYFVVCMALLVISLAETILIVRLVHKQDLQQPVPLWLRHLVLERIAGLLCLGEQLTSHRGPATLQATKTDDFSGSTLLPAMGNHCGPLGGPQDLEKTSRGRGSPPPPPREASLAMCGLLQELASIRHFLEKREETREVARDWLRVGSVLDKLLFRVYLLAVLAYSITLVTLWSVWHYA
The test is described as follows: contractile effects on the isolated colon from a guinea pig (5-HT3 receptor agonistic activity). Details: species or system guinea pig (male Hartley). The conditions noted are these: for Emax: guinea pig, read-out: Max. response; for Relative potency: relative EC50 value, based on that of 5-HT as standard value (1). The source says:
Distal colons were excised from male Hartley guinea pigs (500 to 800 g) to prepare strips of about 20 mm.
Each strip was longitudinally suspended in an organ bath, and contractile response was isometrically measured.

The test system of test [2] is 5-HT3 receptor. The test is described as follows: Facilitation of defecation in rat. It is filed as in vivo, rat (male Wistar). The conditions noted are these: 10 mg/kg s.c.; number of feces excreted for four hours after administration. The protocol:
In the male Wistar rat (200-300 g), facilitating effects on defecation by stimulation of 5-HT3 receptor [Miyata et al., J. Pharmacol. Exp. Ther., 261, 297 (1992)] were studied. The compound (10 mg/kg) was subcutaneously administered to the rat and the number of feces excreted for four hours after the administration was counted.

Turning to `c1ccc2c(c1)Cc1sc([C@@H]3C[C@@H]4CCCN4C3)nc1-2` (relative stereo) [Ex. 66, (3R*,5S*)-3-(8H-indeno[1,2-d]thiazol-2-yl)-1-azabicyclo[3.3.0]octane hemifumarate], on 5-HT3 receptor [1], the Emax was 57%.

Consider `NCCc1nc2c(s1)Cc1ccccc1-2.O=C(O)/C=C/C(=O)O` [Ex. 9, 2-(2-aminoethyl)-8H-indeno[1,2-d]thiazole fumarate], for which, on 5-HT3 receptor [1], the Emax turned out to be 75% and the Relative potency is given as 1/2.

As to `O=C(O)/C=C/C(=O)O.c1ccc(-c2csc(C3CCCNC3)n2)cc1` (centres unmarked) [Ex. 46, 4-Phenyl-2-(3-piperidyl)thiazole fumarate], at 5-HT3 receptor [1], the Emax turned out to be 52% and the Relative potency was 1/2.

Consider `c1ccc2c(c1)Cc1sc(C3CCNC3)nc1-2` (centres unmarked) [Ex. 52, 2-(3-pyrrolidinyl)-8H-indeno[1,2-d]thiazole], for which the Emax on 5-HT3 receptor [1] turned out to be 77%. In addition, the “facilitating effect on defecation” value in the test on 5-HT3 receptor [2] is “exhibited facilitating effect on defecation”.

Turning to `c1csc(-c2csc(CC3CCCCN3)n2)c1` (centres unmarked) [Ex. 59, 2-[[4-(2-Thienyl)-2-thiazolyl]methyl]piperidine hemifumarate], at 5-HT3 receptor [1], the Emax is 45% and the Relative potency is 1/3.

As for `NC1(CCc2nc3c(s2)Cc2ccccc2-3)CCCCC1` [Ex. 70, 2-[2-(1-aminocyclohexyl)ethyl]-8H-indeno[1,2-d]thiazole], on 5-HT3 receptor [1], the Emax is 23%.

With `c1ccc2c(c1)Cc1sc(CCN3CCCCC3)nc1-2` [Ex. 71, 2-(2-piperidinoethyl)-8H-indeno[1,2-d]thiazole], on 5-HT3 receptor [1], the Emax stood at 51%.
